The conditions of this series: 0.5% (w/w) nicotine or higher and 0.9% (w/w) tartaric acid or higher, ambient conditions. From the text: As used herein, weight percentage (w/w) refers to the weight of the individual component over the weight of the total formulation.

Consider `CN1CCCC1c1cccnc1.O=C(O)C(O)C(O)C(=O)O` (stereo not shown) [nicotine bitartrate], for which the “solubility in propylene glycol (PG), vegetable glycerin (VG) or any mixture (in words)” value is “will not produce a solution”.

These data come from patent publication US20200345058A1, “Nicotine Oxalic Acid Formulations” (priority 2017, published 2020).
